# Data from ChEMBL document CHEMBL5029175, “Discovery of MK-4688: an Efficient Inhibitor of the HDM2-p53 Protein-Protein Interaction” (J Med Chem, 2021).
# Tests used:
# [1] = Lipophilicity, logD of the compound at pH 7 by RP-HPLC analysis; type: physicochemical; conditions: buffer
# [2] = Unbound clearance in dog; type: ADME, Canis lupus familiaris; conditions: in vivo
# [3] = Mean residence time in dog; type: ADME, Canis lupus familiaris; conditions: in vivo
# [4] = Bioavailability in dog; type: ADME, organism-based, Canis lupus familiaris; conditions: in vivo
# [5] = Unbound clearance in rat; type: ADME; conditions: in vivo
# [6] = Mean residence time in rat; type: ADME; conditions: in vivo
# [7] = Bioavailability in rat; type: ADME, organism-based; conditions: in vivo
# [8] = Intrinsic clearance in rat hepatocytes; type: ADME, cell-based, Hepatocyte; conditions: read-out: CLH
# [9] = Intrinsic clearance in dog hepatocytes; type: ADME, cell-based, Canis lupus familiaris, Hepatocyte; conditions: read-out: CLH
# [10] = Intrinsic Clearance in rhesus monkey hepatocytes; type: ADME, cell-based, Macaca mulatta, Hepatocyte; conditions: read-out: CLH
# [11] = Plasma protein binding in rat; type: ADME, cell-free; conditions: read-out: PPB (converted)
# [12] = Plasma protein binding in dog; type: ADME, cell-free, Canis lupus familiaris; conditions: read-out: PPB (converted)
# [13] = Plasma protein binding in rhesus monkey; type: ADME, cell-free, Macaca mulatta; conditions: read-out: PPB (converted)
# [14] = Clearance in rat plasma at 1 mg/kg, po or 0.5 mg/kg, iv; type: ADME, organism-based
# [15] = Clearance in dog plasma at 0.5 mg/kg, po or 0.25 mg/kg, iv; type: ADME, organism-based, Canis lupus familiaris
# [16] = Clearance in rhesus monkey plasma at 0.5 mg/kg, iv; type: ADME, organism-based, Macaca mulatta
# [17] = Volume of distribution in rat at 1 mg/kg, po or 0.5 mg/kg, iv; type: ADME, organism-based; conditions: in vivo
# [18] = Volume of distribution in dog at 0.5 mg/kg, po or 0.25 mg/kg, iv; type: ADME, organism-based, Canis lupus familiaris; conditions: in vivo
# [19] = Volume of distribution in rhesus monkey at 0.5 mg/kg, iv; type: ADME, organism-based, Macaca mulatta; conditions: in vivo
# [20] = Terminal half life in rat at 1 mg/kg, po or 0.5 mg/kg, iv; type: ADME, organism-based; conditions: in vivo, read-out: beta t1/2 (converted)
# [21] = Terminal half life in dog at 0.5 mg/kg, po or 0.25 mg/kg, iv; type: ADME, organism-based, Canis lupus familiaris; conditions: in vivo, read-out: beta t1/2 (converted)
# [22] = Terminal half life in rhesus monkey at 0.5 mg/kg, iv; type: ADME, organism-based, Macaca mulatta; conditions: in vivo, read-out: beta t1/2 (converted)
# [23] = Bioavailability in rat at 1 mg/kg, po or 0.5 mg/kg, iv; type: ADME, organism-based; conditions: in vivo
# [24] = Bioavailability in dog at 0.5 mg/kg, po or 0.25 mg/kg, iv; type: ADME, organism-based, Canis lupus familiaris; conditions: in vivo
# [25] = Intrinsic clearance in human hepatocytes; type: ADME, cell-based, Hepatocyte; conditions: read-out: CLH
# [26] = Plasma protein binding in human; type: ADME, cell-free; conditions: read-out: PPB (converted)
# Cytochrome P450 3A4 [27] = biological target: T1, Cytochrome P450 3A4 (Homo sapiens, UniProt P08684); assay: Inhibition of CYP3A4 (unknown origin); type: ADME
# T1 sequence (P08684 whole entry): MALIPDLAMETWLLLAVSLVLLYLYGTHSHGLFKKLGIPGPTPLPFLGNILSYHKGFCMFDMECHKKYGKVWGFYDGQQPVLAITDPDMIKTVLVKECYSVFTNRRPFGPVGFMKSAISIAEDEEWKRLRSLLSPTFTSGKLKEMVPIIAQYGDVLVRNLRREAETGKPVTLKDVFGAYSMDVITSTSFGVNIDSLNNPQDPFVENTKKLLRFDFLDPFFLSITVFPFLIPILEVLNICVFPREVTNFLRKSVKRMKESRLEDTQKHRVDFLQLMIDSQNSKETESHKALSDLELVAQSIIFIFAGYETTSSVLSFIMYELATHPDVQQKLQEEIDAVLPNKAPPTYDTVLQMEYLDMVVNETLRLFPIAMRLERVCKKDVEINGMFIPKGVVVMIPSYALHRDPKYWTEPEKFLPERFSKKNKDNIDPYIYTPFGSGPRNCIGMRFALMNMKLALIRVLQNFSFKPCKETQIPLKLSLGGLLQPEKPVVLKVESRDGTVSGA
# Cytochrome P450 2C9 = Cytochrome P450 2C9 (Homo sapiens, UniProt P11712); assay: Inhibition of CYP2C9 (unknown origin); type: ADME
# Sequence of Cytochrome P450 2C9 (P11712 whole entry): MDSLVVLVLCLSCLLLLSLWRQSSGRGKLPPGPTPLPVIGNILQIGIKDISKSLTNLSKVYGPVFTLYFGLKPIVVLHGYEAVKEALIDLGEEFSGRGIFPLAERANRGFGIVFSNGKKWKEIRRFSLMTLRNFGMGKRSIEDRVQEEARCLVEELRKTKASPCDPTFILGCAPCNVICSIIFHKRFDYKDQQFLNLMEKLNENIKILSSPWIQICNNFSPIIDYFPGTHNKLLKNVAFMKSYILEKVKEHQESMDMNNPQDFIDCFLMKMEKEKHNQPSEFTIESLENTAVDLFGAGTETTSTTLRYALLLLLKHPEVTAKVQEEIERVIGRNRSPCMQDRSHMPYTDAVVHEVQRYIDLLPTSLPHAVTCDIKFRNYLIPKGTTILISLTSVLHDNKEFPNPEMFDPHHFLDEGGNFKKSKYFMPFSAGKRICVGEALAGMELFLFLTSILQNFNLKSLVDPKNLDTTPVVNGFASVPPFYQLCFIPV
# Cytochrome P450 2D6 = Cytochrome P450 2D6 (Homo sapiens, UniProt P10635); assay: Inhibition of CYP2D6 (unknown origin); type: ADME
# Sequence of Cytochrome P450 2D6 (P10635 whole entry): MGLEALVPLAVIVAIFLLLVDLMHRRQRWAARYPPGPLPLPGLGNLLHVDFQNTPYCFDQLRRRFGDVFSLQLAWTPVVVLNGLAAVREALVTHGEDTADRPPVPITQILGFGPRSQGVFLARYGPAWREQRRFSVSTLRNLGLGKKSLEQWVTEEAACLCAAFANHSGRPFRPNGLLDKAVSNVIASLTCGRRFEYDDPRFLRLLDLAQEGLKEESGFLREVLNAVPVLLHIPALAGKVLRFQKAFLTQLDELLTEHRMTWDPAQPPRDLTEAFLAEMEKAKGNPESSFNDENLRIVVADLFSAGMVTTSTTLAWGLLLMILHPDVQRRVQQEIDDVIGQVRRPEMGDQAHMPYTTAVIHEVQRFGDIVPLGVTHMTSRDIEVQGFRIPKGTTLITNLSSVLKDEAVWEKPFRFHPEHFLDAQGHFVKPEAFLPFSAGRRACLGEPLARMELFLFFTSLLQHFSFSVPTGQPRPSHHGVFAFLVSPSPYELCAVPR
# Cytochrome P450 2C8 = biological target: T2, Cytochrome P450 2C8 (Homo sapiens, UniProt P10632); assay: Inhibition of CYP2C8 (unknown origin); type: ADME
# T2 sequence (P10632 whole entry): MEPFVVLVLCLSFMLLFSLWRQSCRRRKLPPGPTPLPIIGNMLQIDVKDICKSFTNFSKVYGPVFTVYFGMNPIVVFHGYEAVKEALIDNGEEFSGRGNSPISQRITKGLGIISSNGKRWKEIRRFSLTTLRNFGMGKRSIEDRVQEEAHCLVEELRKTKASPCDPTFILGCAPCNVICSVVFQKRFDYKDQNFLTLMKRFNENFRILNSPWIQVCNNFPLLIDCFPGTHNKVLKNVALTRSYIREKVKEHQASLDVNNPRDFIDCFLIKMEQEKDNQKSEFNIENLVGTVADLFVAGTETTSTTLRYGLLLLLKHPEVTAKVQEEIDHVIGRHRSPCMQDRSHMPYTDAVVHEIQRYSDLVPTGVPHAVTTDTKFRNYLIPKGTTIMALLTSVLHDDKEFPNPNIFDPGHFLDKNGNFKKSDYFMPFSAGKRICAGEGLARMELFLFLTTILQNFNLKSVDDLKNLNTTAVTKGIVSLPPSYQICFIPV
# Cytochrome P450 3A4 [28] = biological target: T1, Cytochrome P450 3A4; assay: Activation of CYP3A4 (unknown origin); type: ADME
# SJSA-1 = assay: Antitumor activity against human SJSA-1 cells xenografted in po dosed CD-1 nu/nu mouse assessed as tumor growth inhibition administered once daily for 7 consecutive days followed by 2 weeks off dosing schedule; type: functional, organism-based; conditions: time 3.0 weeks
# [29] = Toxicity in CD-1 mouse xenografted with human SJSA-1 cells assessed as body weight loss at 50 to 100 mg/kg, po administered once daily for 7 consecutive days followed by 2 weeks off dosing schedule; type: organism-based; conditions: in vivo, 504 h, dose 50-100 mg/kg, time 3 weeks
# Mus musculus = assay: In vivo activation of p53 pathway in human SJSA-1 cells xenografted in po dosed CD-1 nu/nu mouse assessed as induction of p21 mRNA expression measured after 6 hrs; type: functional, organism-based; conditions: dose 100.0 mg/kg
# [30] = biological target: Voltage-gated inwardly rectifying potassium channel KCNH2 (Homo sapiens, UniProt Q12809); assay: Inhibition of human ERG
# Sequence of Voltage-gated inwardly rectifying potassium channel KCNH2 (Q12809 whole entry): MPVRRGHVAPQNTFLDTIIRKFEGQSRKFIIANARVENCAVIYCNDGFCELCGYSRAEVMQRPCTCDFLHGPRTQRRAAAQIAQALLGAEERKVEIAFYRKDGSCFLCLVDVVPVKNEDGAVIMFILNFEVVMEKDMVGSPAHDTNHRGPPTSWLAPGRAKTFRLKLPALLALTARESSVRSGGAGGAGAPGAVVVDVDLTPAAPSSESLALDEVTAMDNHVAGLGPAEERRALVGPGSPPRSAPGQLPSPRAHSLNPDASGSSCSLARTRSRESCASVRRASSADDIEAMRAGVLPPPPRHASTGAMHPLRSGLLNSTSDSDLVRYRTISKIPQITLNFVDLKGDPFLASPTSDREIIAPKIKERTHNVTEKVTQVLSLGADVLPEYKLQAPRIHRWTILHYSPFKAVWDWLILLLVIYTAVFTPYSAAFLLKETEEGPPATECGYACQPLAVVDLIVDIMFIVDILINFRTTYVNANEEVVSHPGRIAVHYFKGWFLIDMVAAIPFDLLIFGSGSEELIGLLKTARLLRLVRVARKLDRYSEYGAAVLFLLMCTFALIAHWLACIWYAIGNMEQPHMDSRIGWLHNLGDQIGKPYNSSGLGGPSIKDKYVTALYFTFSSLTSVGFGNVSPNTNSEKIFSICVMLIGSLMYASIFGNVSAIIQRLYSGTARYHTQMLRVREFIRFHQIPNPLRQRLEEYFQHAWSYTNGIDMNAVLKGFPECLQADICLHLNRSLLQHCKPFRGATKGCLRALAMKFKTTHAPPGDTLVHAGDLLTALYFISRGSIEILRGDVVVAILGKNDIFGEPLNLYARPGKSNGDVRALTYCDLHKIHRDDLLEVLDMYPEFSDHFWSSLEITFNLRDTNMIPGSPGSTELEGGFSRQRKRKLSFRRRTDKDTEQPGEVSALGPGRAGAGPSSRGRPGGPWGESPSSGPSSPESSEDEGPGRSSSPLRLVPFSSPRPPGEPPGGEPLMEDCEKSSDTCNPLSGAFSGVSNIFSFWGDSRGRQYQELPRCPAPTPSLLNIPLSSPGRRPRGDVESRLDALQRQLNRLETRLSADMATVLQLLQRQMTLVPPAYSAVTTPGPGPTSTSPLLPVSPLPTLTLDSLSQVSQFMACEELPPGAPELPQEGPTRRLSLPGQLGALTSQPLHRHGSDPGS
# HCT-116 = assay: cells; conditions: Homo sapiens, HCT-116, 72 h
# [31] = biological target: E3 ubiquitin-protein ligase Mdm2 (Homo sapiens, UniProt Q00987); assay: Binding affinity to HDM2 (unknown origin)
# Sequence of E3 ubiquitin-protein ligase Mdm2 (Q00987 whole entry): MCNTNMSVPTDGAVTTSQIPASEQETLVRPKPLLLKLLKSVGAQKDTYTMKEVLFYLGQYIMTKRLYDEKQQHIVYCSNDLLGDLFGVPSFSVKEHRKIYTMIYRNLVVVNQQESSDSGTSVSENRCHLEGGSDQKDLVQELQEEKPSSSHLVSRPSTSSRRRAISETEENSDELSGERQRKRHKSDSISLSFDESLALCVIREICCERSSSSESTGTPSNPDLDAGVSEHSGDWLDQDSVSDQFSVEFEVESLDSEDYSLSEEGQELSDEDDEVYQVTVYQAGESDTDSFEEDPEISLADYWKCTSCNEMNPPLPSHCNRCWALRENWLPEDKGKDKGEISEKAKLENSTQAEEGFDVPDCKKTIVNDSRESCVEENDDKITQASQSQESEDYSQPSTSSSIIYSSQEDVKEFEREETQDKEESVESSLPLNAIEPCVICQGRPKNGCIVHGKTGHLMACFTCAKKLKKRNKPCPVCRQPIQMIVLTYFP
# [32] = biological target: Tumour suppressor p53/oncoprotein Mdm2 (Homo sapiens, UniProt Q00987); assay: Inhibition of HDM2/p53 interaction in human HCT-116 cells expressing p53RE/Bla incubated for 16 hrs by beta-lactamase reporter gene assay; type: cell-based
# Sequence of Tumour suppressor p53/oncoprotein Mdm2 (P04637 whole entry, the tested form may be a part): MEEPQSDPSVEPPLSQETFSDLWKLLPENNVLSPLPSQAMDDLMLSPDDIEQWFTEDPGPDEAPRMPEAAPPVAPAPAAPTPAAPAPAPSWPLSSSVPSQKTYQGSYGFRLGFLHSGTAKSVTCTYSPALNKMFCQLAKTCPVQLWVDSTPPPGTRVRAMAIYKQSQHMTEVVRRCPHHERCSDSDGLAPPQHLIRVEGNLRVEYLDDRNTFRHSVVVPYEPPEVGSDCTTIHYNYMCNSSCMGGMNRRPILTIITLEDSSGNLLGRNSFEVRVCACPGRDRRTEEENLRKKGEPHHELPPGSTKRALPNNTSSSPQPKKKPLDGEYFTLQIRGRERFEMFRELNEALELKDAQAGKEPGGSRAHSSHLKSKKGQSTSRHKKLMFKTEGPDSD
# Sequence of Tumour suppressor p53/oncoprotein Mdm2 (Q00987 whole entry, the tested form may be a part): as the sequence (Q00987 whole entry) above
# [33] = Selectivity index, ratio of IC50 for inhibition of HDM2/p53 interaction in human HCT-116 cells expressing p53/Bla to IC50 for inhibition of N-terminal thioredoxin-His6 tagged HDM2 (17 to 125 residues)/p53 protein-protein interaction (unknown origin); type: cell-based
# [34] = Clearance in rat plasma; type: ADME, cell-free
# [35] = Oral bioavailability in rat; type: ADME, organism-based; conditions: in vivo
structure (smiles),measurement,setting,value
C[C@H]1CC[C@H](Cn2c(N3CCO[C@@H]4CCC[C@H]43)nc3cc(-c4noc(=O)[nH]4)nc(-c4cncc(Cl)c4)c32)CC1,logD,[1],2.46
same,CL free,[2],122 mL/min/kg
same,MRT,[3],5.9 h
same,bioavailability,[4],86%
same,CL free,[5],5214 mL/min/kg
same,MRT,[6],0.6 h
same,bioavailability,[7],24%
same,CLint scaled,[8],251 mL/min/kg
same,CLint scaled,[9],78 mL/min/kg
same,CLint scaled,[10],70 mL/min/kg
same,fraction unbound,[11],0.007
same,fraction unbound,[12],0.009
same,fraction unbound,[13],0.006
same,clearance,[14],36 mL/min/kg
same,clearance,[15],1.4 mL/min/kg
same,clearance,[16],12.4 mL/min/kg
same,Vd,[17],1.3 L/kg
same,Vd,[18],0.39 L/kg
same,Vd,[19],0.91 L/kg
same,half-life,[20],3 h
same,half-life,[21],4.2 h
same,half-life,[22],1.6 h
same,bioavailability,[23],24%
same,bioavailability,[24],86%
same,CLint scaled,[25],58 mL/min/kg
same,fraction unbound,[26],0.008
same,IC50,Cytochrome P450 3A4 [27],> 50000 nM
same,IC50,Cytochrome P450 2C9,31000 nM
same,IC50,Cytochrome P450 2D6,> 50000 nM
same,IC50,Cytochrome P450 2C8,800 nM
same,EC50,Cytochrome P450 3A4 [28],> 30000 nM
same,Activity,SJSA-1,Dose-Dependent Effect
same,Activity,[29],Non-Toxic
same,Activity,Mus musculus,Dose-Dependent Effect
same,IC50,[30],12000 nM
same,IC50,HCT-116,122 nM
CCC[C@H]1N(C(=O)c2ncccc2C(F)(F)F)CCC[C@@]1(Oc1csc(C(F)(F)F)c1)C(=O)N1CCC(O)(c2ccccc2O[C@H](C)CCC2(C(=O)O)CCC2)CC1,Kd,[31],3.8 nM
C[C@@H](Nc1nc(-c2noc(=O)[nH]2)nc2nc(N3CCOC[C@H]3c3ccccc3)n(C[C@H]3CC[C@H](C)CC3)c12)C1CCC1,logD,[1],3.27
same,IC50,[32],64 nM
same,Ratio IC50,[33],100
same,MRT,[6],0.73 h
same,clearance,[34],73 mL/min/kg
same,bioavailability,[35],2%
same,IC50,HCT-116,446 nM
